biological target: T1, Oxysterols receptor LXR-beta (Homo sapiens) (UniProt P55055); assay: Agonist activity at human LXRbeta expressed in CV1 cells after 20 hrs by luciferase reporter co-transfection assay relative to control; type: cell-based; conditions: CV-1
T1 sequence (whole entry): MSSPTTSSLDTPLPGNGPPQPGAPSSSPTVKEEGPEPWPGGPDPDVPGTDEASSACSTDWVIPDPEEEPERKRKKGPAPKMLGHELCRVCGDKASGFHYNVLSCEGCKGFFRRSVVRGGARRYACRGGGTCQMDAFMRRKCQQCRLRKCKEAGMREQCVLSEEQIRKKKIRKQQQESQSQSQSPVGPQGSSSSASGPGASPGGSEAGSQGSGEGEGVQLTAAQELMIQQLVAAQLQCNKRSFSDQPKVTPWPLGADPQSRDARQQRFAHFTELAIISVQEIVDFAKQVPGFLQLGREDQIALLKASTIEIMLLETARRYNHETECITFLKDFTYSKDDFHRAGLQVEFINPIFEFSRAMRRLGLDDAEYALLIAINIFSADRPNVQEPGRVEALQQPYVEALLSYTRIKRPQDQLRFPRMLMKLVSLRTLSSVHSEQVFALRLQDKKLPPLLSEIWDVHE

In order of falling Efficacy:
1. Cc1nc(C(F)(F)F)c(Cl)n1-c1ccc(-c2cc(F)c(CO)c(S(C)(=O)=O)c2)cc1-n1nncc1-c1ccc(OC(F)(F)F)cc1  116%
2. Cc1nc(C(F)(F)F)cn1-c1ccc(-c2cccc(S(C)(=O)=O)c2)cc1-n1nncc1Cc1cccc(Cl)c1  100%
3. Cc1nc(C(F)(F)F)cn1-c1c(F)cc(-c2cccc(S(C)(=O)=O)c2)cc1-n1nncc1-c1ccc(Cl)cc1  85%
4. Cc1nc(C(F)(F)F)cn1-c1ccc(-c2cc(F)c(CO)c(S(C)(=O)=O)c2)cc1-c1nc(C(C)C)oc1-c1ccc(OC(F)(F)F)cc1  75%

— ChEMBL document CHEMBL3352733, “Liver x receptor agonists for the treatment of coronary heart disease and other disorders” (ACS Med Chem Lett, 2014)
